Test results reported in patent publication US20250382621A1, “IMMUNE EFFECTOR CELL THERAPIES WITH ENHANCED EFFICACY” (Novartis AG, priority 2015, published 2025).
Where a name gives a salt, the structure may show the parent alone. Read-outs that look alike come from different tables or passages of the source.

Legend:
Pan CD3+ T cells = assay: Dose response of LSD1 inhibitors on T cell phenotypes; settings: for EC50: Homo sapiens, T-cell; for CD4+ Tscm percentage: at 100 nM
Description: Cells were isolated from in vitro culture, washed once in MACS+0.5% BSA buffer, and stained on ice using either biotinylated Protein L followed by incubated with a fluorochrome-conjugated streptavidin reagent or an antibody recognizing the given target antigen. In all analyses, the population of interest was gated based on forward vs side scatter characteristics, followed by singlet gating, and live cells were gated.
The following parameters were investigated: • 1. Ratio of CD8/CD4 were calculated; • 2. % Tscm, Tem, Tem of CD3+ T cells; • 3. Ratios of Tscm/Tem and Tscm/Tcm of CD3+ T cells were calculated; • 4. % Tscm, Tem, Tem of CD8+ or CD4+ T cells were calculated; • 5. Ratios of Tscm/Tem and Tscm/Tcm of CD8+ or CD4+ T cells were calculated; and/or • 6. In the case of CAR+-T cells, percentage of Tscm, Tem, Tem of CD19-CAR+ T, and BCMA-10-CAR+ T cells were evaluated.
The Tscm population were evaluated as double CD45RA+CCR7+ or triple CD45RA+CCR7+CD62L+ in a given total live CD3+ or subset CD4+ or CD8+ T cell population. Tem were presented as double CD45RA−CCR7− and Tem as CD45RA−CCR7+ in a given total live CD3+ or subset CD4+ or CD8+ T cell population (FIG. 19 and FIG. 25 illustrate the gating strategies).
In all instances, LSD inhibitor compounds were either resuspended in water (H2O) and/or DMSO, depending on compound solubility. In all instances compounds were added throughout the ex vivo T cell culture, and T cells were washed extensively prior to assay. […] In the figures, “control” refers to vehicle with no LSD inhibitor compound added. For Pan CD3+ T cell expansion experiment, compound treatment was started at 4 h or 24 h after activation; for CART cell production, compound treatment was started at 48 h after viral transduction, and all treatments continued through culture period in all conditions.
Compounds were refreshed every 2-3 days when fresh media is replenished. Following 10 days of expansion, T cells were harvested and de-beaded and their phenotypes were analyzed by flow cytometry using antibodies against CD3, CD4, CD8, CD45RA, CCR7, CD62L, CD27 and CD28 plus live/dead dye to exclude the dead cell population.

full-length LSD1 = molecular target: T1, full-length LSD1 (Homo sapiens, UniProt O60341); assay: FL-LSD1 LC-MS assay; assay type: biochemical; settings: 0.4 nM FL-LSD1, H3K4me1 peptide substrate, 60 min room temperature; read-out: LCMS IC50 (LSD1 IC50 as measured by LCMS)
T1 construct: the full-length LSD1 and 0.5 pM FAD in reaction buffer
From the text: Representative compounds of the present disclosure were serially and separately diluted 3-fold in DMSO to obtain a total of twelve concentrations. […] The data were then fit to a dose response equation using the program Helios to get the IC50 values of the test compound.

T cells = assay: T cell phenotype after expansion with LSD1 shRNA; assay type: cell-based, human; settings: for enrichment of TSCM in resulting CD4+ T cell population: vs normal expansion
Description: Flow cytometry was performed on a four laser Fortessa (Becton-Dickinson).
T cells were isolated by negative selection and expanded with anti-CD3/CD28 beads at a 3:1 ratio for 10 days. On day 1, T cells were transduced with lentiviral expression vectors containing LSD1 shRNA targeting sequences that co-expressed the fluorescent protein mCherry. Following expansion, T cell phenotypes of mCherry+ T cells were assessed by flow cytometry.

[1] = anti-CD3/CD28 beads 3:1, 10 days, mCherry+ cells

## c1ccc([C@@H]2C[C@H]2NC2CCNCC2)cc1 (relative stereo) [LSD1i-GSK, rel-N-[(1R,2S)-2-Phenylcyclopropyl]-4-Piperidinamine hydrochloride (1:2)]
Pan CD3+ T cells; 10 day expansion
  total expansion rate of total cells: without changing the total expansion rate of total cells
Pan CD3+ T cells; 10 day expansion, dose escalation
  ratio of CD8/CD4: can significantly increase the ratio of CD8/CD4
Pan CD3+ T cells; read-out: EC50 for inducing Tscm CD3+ T cells
  EC50: 1.08 nM
Pan CD3+ T cells; read-out: EC50 for inducing Tscm CD8+ T cells
  EC50: 1.08 nM
Pan CD3+ T cells
  CD4+ Tscm percentage: about 5%
Pan CD3+ T cells; dose elevation, Tscm/Tcm unchanged
  ratio of Tscm/Tem of CD3+ T cells: increases in response to dose elevation
Pan CD3+ T cells; dose elevation, hardly seen in the CD4+ population
  ratio of Tscm/Tem of CD8+ T cells: significantly increases in response to dose elevation
Pan CD3+ T cells; observed between 1 nM to 100 nM, Tcm remain the same
  CD3+ Tscm and Tem percentage: could increase/sustain CD3+ Tscm, decrease Tem, in a dose responsive fashion
Pan CD3+ T cells; observed between 1 nM to 100 nM, Tcm unchanged
  CD8+ Tscm, CD4+ Tscm and Tem percentage: could increase/sustain CD8+ Tscm and CD4+ Tscm, decrease Tem, in a dose responsive fashion

## Cc1cc2c(cc1C#N)c(-c1cccc(N)c1C)cn2[C@H]1CC[C@H](O)CC1 [Compound 93, Trans-3-(3-amino-2-methylphenyl)-1-(4-hydroxycyclohexyl)-6-methyl-1H-indole-5-carbonitrile]
Pan CD3+ T cells
  CD4+ Tscm percentage: about 5%

## Cc1ccc(-c2ncc(OC[C@@H]3CCNC3)cc2-c2ccc(C#N)cc2)cc1 [Compound C, (R)-4-(5-(pyrrolidin-3-ylmethoxy)-2-(p-tolyl)pyridin-3-yl)benzonitrile]
full-length LSD1
  IC50: 30 nM

## LSD1 2: shRNA to LSD1, sequence encoding shRNA SEQ ID NO: 127 (DNA CAGAAGGCCTAGACATTAAACCTCGAGGTTTAATGTCTAGGCCTTCTGTTTTTTGA)
T cells; CD4+ T cells
  enrichment of TSCM in resulting CD4+ T cell population: enriched in TSCM
T cells; [1]
  percentage of CD8+ T cells having the TSCM phenotype (CD45RA+CD62L+CCR7+CD27+CD95+): ~50%

B1: LSD1 1A: shRNA to LSD1, sequence encoding shRNA SEQ ID NO: 125 (nucleic acid)
DNA: CGGTTGCTAGAAGCTACATCTGTTAATATTCATAGCAGATGTAGCTTCTAGCAACCGTTTTTTGA
T cells; CD4+ T cells
  enrichment of TSCM in resulting CD4+ T cell population: enriched in TSCM
T cells; [1]
  percentage of CD8+ T cells having the TSCM phenotype (CD45RA+CD62L+CCR7+CD27+CD95+): ~50%

B2: LSD1 1B: shRNA to LSD1, sequence encoding shRNA SEQ ID NO: 126 (nucleic acid)
DNA: CGGTTGCTAGAAGTTACATTTGTTAATATTCATAGCAGATGTAGCTTCTAGCAACCGTTTTTTGA
T cells; CD4+ T cells, anti-CD3/CD28 beads 3:1, 10 days, mCherry+ cells
  percentage of CD4+ T cells having the TSCM phenotype (CD45RA+CD62L+CCR7+CD27+CD95+): up to 20%
T cells; [1]
  percentage of CD8+ T cells having the TSCM phenotype (CD45RA+CD62L+CCR7+CD27+CD95+): ~50%
